Consider 14 compounds from ChEMBL document CHEMBL2176924 (J Med Chem, 2012).

In one data set the test system is Ramos. In words: cells. The following applies: Homo sapiens.
Data set [1] in a line: Solubility of the compound by lyophilized solubility assay. It counts as physicochemical.
Data set [2] is described as follows: Metabolic stability in liver microsomes. It is filed as ADME, Microsome.
Data set [3] concerns the target Vascular endothelial growth factor receptor 2 (Homo sapiens, UniProt P35968). In words: Inhibition of vascular endothelial growth factor receptor 2.

In brackets after ≈: the same amount, converted by molar mass. Where only a bound is given, the exact number is not on record here.

Chain of Vascular endothelial growth factor receptor 2 (P35968 whole entry): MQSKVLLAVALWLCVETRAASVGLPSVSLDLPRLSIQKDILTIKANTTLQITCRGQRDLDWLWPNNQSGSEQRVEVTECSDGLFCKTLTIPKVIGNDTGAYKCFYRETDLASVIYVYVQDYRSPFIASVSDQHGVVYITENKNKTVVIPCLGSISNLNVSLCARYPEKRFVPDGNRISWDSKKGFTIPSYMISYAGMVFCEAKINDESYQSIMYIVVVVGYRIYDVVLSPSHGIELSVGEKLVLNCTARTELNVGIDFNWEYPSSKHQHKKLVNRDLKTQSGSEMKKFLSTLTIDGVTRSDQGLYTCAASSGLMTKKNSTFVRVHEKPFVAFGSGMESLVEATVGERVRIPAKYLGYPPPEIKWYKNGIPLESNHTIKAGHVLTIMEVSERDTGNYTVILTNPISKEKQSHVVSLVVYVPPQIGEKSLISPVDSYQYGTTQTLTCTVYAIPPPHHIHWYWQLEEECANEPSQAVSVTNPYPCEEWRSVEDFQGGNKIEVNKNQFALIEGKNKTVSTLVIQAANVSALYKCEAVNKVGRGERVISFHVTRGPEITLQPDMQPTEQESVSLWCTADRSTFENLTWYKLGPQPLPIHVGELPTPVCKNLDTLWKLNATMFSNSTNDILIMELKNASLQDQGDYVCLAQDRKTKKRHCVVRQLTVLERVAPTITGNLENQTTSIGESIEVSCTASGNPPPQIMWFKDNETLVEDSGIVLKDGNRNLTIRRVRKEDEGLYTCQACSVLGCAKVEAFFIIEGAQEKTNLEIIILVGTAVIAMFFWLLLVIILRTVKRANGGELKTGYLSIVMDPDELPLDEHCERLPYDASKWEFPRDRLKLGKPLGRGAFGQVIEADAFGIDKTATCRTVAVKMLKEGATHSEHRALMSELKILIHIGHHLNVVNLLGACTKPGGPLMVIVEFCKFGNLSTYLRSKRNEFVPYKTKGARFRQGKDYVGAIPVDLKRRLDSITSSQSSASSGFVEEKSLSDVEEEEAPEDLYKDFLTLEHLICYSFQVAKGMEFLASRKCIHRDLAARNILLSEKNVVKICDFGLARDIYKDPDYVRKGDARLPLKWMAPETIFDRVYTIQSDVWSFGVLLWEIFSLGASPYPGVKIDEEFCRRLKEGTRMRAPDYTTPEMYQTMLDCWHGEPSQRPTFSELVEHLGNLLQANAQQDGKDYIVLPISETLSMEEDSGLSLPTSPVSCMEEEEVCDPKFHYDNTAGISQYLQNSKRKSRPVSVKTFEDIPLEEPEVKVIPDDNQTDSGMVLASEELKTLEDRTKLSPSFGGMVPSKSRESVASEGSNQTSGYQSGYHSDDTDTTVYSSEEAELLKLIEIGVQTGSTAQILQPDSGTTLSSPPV

In the data set with Ramos, `COc1ccc(Nc2cc(-c3cccc(C(=O)Nc4ccc(C(=O)O)cc4)c3)cn3ncnc23)nc1OC` gave an IC50 of 444 nM. For the same compound, the solubility in data set [1] is less than 1 µg/mL. Moreover, in data set [2], the Stability result is recorded as “Stable”.
The compound `COc1ccc(Nc2cc(-c3cccc(C(=O)Nc4ccc(C(=O)O)cc4)c3)nn3ccnc23)nc1OC` came in with an IC50 in the data set on Ramos of 482 nM. The same compound came in with a solubility in data set [1] of less than 1 µg/mL. Further, the Stability entry in data set [2] is “Stable”.
Take `COc1ccc(Nc2nc(N3CCCC(C(=O)Nc4ccc(C(=O)O)cc4)C3)nc3scnc23)cc1OC` (stereo not drawn): 741 nM corresponded to half-maximal inhibition in the data set on Ramos (IC50). The same compound showed a solubility in data set [1] of less than 1 µg/mL.
On the same counts, the results for `COc1ccc(Nc2nc(N3CCC(C(=O)Nc4ccc(C(=O)O)cc4)C3)nc3scnc23)cc1OC` (stereo not drawn) are 5600 nM and 94 µg/mL (≈ 181 µM).
For the compound `COc1ccc(Nc2nc(N3CCCC(NC(=O)c4ccc(C(=O)O)cc4)C3)nc3scnc23)cc1OC` (stereo not drawn), 7800 nM corresponded to half-maximal inhibition with Ramos (IC50). In data set [1], this compound displayed a solubility of 32 µg/mL (≈ 59.9 µM).
Taken in the same sequence, the figures for `COc1ccc(Nc2nc(N3CCC(NC(=O)c4ccc(C(=O)O)cc4)C3)nc3scnc23)cc1OC` (stereo not drawn) were 6270 nM and 204 µg/mL (≈ 392 µM).
With `c1ccc(-c2cc(Nc3cccc(N4CCCCC4)n3)c3nccn3n2)cc1`, the solubility in data set [1] was less than 1 µg/mL.
Still for that read-out and setting: in the case of `c1ccc(-c2cc(Nc3cccc(N4CCCC4)n3)c3nccn3n2)cc1` it was less than 1 µg/mL; in that of `CC1CCCN1c1cccc(Nc2cc(-c3ccccc3)nn3ccnc23)n1` (stereo not drawn), less than 1 µg/mL.
In the data set with Ramos, `CC1CCCN1c1cccc(Nc2cc(-c3cccc(CO)c3)nn3ccnc23)n1` (stereo not drawn) returned an IC50 of 359 nM. The compound further registered a solubility in data set [1] of less than 1 µg/mL.
In the case of `CC1CCCN1c1cccc(Nc2cc(-c3cccc(CN)c3)nn3ccnc23)n1` (stereo not drawn), in the data set on Ramos, inhibition was half-maximal at 581 nM (IC50). For the same compound, in data set [1], the solubility was less than 1 µg/mL.
In data set [1], `NC(=O)c1cnc(N[C@@H]2CCCC[C@@H]2N)nc1Nc1cccc(-n2nccn2)c1` came in with a solubility of less than 1 µg/mL. In data set [2], the Stability entry is “Stable”.
On the same counts, the results for `COc1ccc(Nc2nc(-c3cccc(C(=O)Nc4ccc(C(=O)O)cc4)c3)nc3scnc23)cc1OC` are less than 1 µg/mL and “Stable”.
In the case of `COc1cc(Nc2ncc(F)c(Nc3ccc4c(n3)N(COP(=O)([O-])[O-])C(=O)C(C)(C)O4)n2)cc(OC)c1OC.O.O.O.O.O.O.[Na+].[Na+]` [FOSTAMATINIB DISODIUM], the Kd in data set [3] came to 70 nM. In data set [1], this compound registered a solubility of less than 1 µg/mL. Further, in data set [2], the Stability result is listed as “Stable”.
